Earlier results on one compound are cited in patent publication US6696551B1, “225Ac-HEHA and related compounds, methods of synthesis and methods of use” (The United States of America as represented by the …, priority 1999, dated 2004).

For `O=C(O)CN(CC(=O)O)[C@H](Cc1ccc([N+](=O)[O-])cc1)CN(CC(=O)O)[C@H]1CCCC[C@@H]1N(CC(=O)O)CC(=O)O` (relative stereo) [CHXA″-DTPA, N[(R)-2-amino-3-(4-nitrophenyl)propyl]-trans-(S,S)-cyclohexane-1,2-diamine-N,N,N′,N″,N″-pentaacetic acid], the “maximum tolerated dose (MTD)” value (^225Ac chelate, mice) is “approximately 100 kBq”. The mouse mortality (higher doses, within eight days) is given as 100%.
